According to PubChem BioAssay AID2060890 (Molecular Pharmacology Branch, DTP, NCI, 2025):

System: LG0703-F948-PDC complex spheroid viability
Experiment: Anticancer human tumor LG0703-F948-PDC patient-derived lung adenocarcinoma cell line growth inhibition [RAS]
Details: for IC50: curve of first compound; for viability, T/C: stronger effect = lower value
From the text: RAS pathway inhibitors in Combinations in Complex Spheroids
A high-throughput screen of multi-cell type tumor spheroids was designed to identify active combinations of RAS pathway inhibitors and targeted small molecules. Complex spheroids include a stromal component modeled by human endothelial cells (HUVEC) and fibroblasts modeled by human mesenchymal stem cells (MSCs). The concentration ranges selected for each drug and investigational agent were based upon clinically achievable concentrations if the clinical Cmax of the agent was known.
Compounds. The drugs and investigational agents: abemaciclib (NSC768073), cobimetinib (NSC768068), divarasib (GDC6063, NSC841802), docetaxel (NSC628503), GDC-1971 (RLY-1971, NSC841576), gemcitabine (NSC613327), inavolisib (NSC800729), ipatasertib (NSC767898), KB-0742 (NSC834161), MRTX-1133 (NSC836407), osimertinib (NSC779217), RMC-4630 (NSC839698), RMC-6236 (NSC851965), RMC-6291 (NSC852671), Ro-3306 (NSC812927), sapanisertib (NSC764658), SN-38 (NSC673596), staurosporine (NSC755774), SY5609 (NSC837396), and tovorafenib (DAY101, NSC766906), were obtained from the National Cancer Institute (NCI) Developmental Therapeutics Program Chemical Repository. The FDA-approved anticancer drug set is available from the NCI Developmental Therapeutics Program. […] The stock solutions were prepared in dimethyl sulfoxide (DMSO, Sigma-Aldrich, St. Louis, MO, cat. D2650) at 800-fold the tested concentration and stored at -70 degrees C prior to their use. All drugs and investigational agents were tested over a range starting from a high concentration at or near the clinical Cmax and decreasing in half-log increments. If the clinical Cmax for an agent had not been determined, the highest concentration tested was 10 microM.
Cell Culture. All cells were maintained in an incubator at 37 degrees C and 5% CO2 with 95% humidity. The PDC lines were cultured according to standard operating procedures established by the NCI PDMR. All PDCs were thawed and cultured in Matrigel-coated flasks prepared with a working solution of 1X Ham's F-12 nutrient mix, without supplementation (Invitrogen, Waltham, MA, cat. 11765054), 100 U/mL penicillin-streptomycin (Invitrogen, cat. 15140122), and 2.5% Matrigel (Corning Inc., Corning, NY, cat. 354248) for the first three passages. The 362531-283-R-J2-PDC and 782815-120-R-J1-PDC lines were cultured in 6C/Colon 1B media, which includes advanced DMEM/F-12 (Thermo Fisher Scientific, cat. 12634028), 10 mM HEPES (Thermo Fisher Scientific, cat. 15630080), 1X GlutaMAX supplement (Thermo Fisher Scientific, cat. 35050061), 0.1 mg/mL primocin (InvivoGen, San Diego, CA, cat. ant-pm-2), 10% defined fetal bovine serum, heat inactivated (HyClone Laboratories Inc., Logan, UT, cat. SH30070.03HI), 50% L-WRN conditioned media (ATCC, cat. CRL-3276), 1.25 mM N-Acetyl-L-cysteine (Sigma-Aldrich, cat. A9165), 10 mM nicotinamide (Sigma-Aldrich, cat. N0636), 1X B-27 supplement (Thermo Fisher Scientific, cat. 17504044), 1X N-2 supplement (Thermo Fisher Scientific, cat. 17502048), 50 ng/mL human EGF (Thermo Fisher Scientific, cat. PHG0311), and 10 microM Y-27632 dihydrochloride (Tocris Bioscience, cat. 1254). The K12877-001-R-J1-PDC line was cultured in 6I media, which includes all 6C/Colon 1B media plus 10 ng/mL human FGF-10 (PeproTech, cat. 100-26), 1 ng/mL human FGF-2 (PeproTech, cat. 100-18B), 1 µM prostaglandin E2 (Tocris Bioscience, cat. 2296), […] hydrocortisone (Sigma-Aldrich, cat. H4001), and […] bovine insulin (Sigma-Aldrich, cat. I6634). The K86415-001-R-J1-PDC line was cultured in 6D media, which includes all 6C/Colon 1B media components minus the L-WRN conditioned media. The 485176-168-R4-J1-PDC was cultured in PANC media, which includes all 6C/Colon 1B media plus 100 ng/mL human FGF-10 (PeproTech, cat. 100-26), 500 nM SB-431542 (Selleckchem, cat. S1067), and 10 nM gastrin (Tocris Bioscience, cat. 3006). […]

[1] = second compound 0.000949 µM, first compound 0.0316 µM
[2] = second compound 0.000949 µM, first compound 0.1 µM
[3] = second compound 0.000949 µM, first compound 0.316 µM
[4] = second compound 0.000949 µM, first compound 1 µM
[5] = second compound 0.000949 µM, first compound 3.16 µM
[6] = second compound 0.000949 µM, first compound 10 µM
[7] = second compound 0.003 µM, first compound 0.0316 µM
[8] = second compound 0.003 µM, first compound 0.1 µM
[9] = second compound 0.003 µM, first compound 0.316 µM
[10] = second compound 0.003 µM, first compound 1 µM
[11] = second compound 0.003 µM, first compound 3.16 µM
[12] = second compound 0.003 µM, first compound 10 µM
[13] = second compound 0.00949 µM, first compound 0.0316 µM
[14] = second compound 0.00949 µM, first compound 0.1 µM
[15] = second compound 0.00949 µM, first compound 0.316 µM
[16] = second compound 0.00949 µM, first compound 1 µM
[17] = second compound 0.00949 µM, first compound 3.16 µM
[18] = second compound 0.00949 µM, first compound 10 µM
[19] = second compound 0.03 µM, first compound 0.0316 µM
[20] = second compound 0.03 µM, first compound 0.1 µM
[21] = second compound 0.03 µM, first compound 0.316 µM
[22] = second compound 0.03 µM, first compound 1 µM
[23] = second compound 0.03 µM, first compound 3.16 µM
[24] = second compound 0.03 µM, first compound 10 µM
[25] = second compound 0.0949 µM, first compound 0.0316 µM
[26] = second compound 0.0949 µM, first compound 0.1 µM
[27] = second compound 0.0949 µM, first compound 0.316 µM
[28] = second compound 0.0949 µM, first compound 1 µM
[29] = second compound 0.0949 µM, first compound 3.16 µM
[30] = second compound 0.0949 µM, first compound 10 µM
[31] = second compound 0.3 µM, first compound 0.0316 µM
[32] = second compound 0.3 µM, first compound 0.1 µM
[33] = second compound 0.3 µM, first compound 0.316 µM
[34] = second compound 0.3 µM, first compound 1 µM
[35] = second compound 0.3 µM, first compound 3.16 µM
[36] = second compound 0.3 µM, first compound 10 µM
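For viability, T/C in this document: 100% = DMSO vehicle wells.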

NC1c2ccccc2OC12CCN(c1cnc3c(N4CCCc5ncccc54)n[nH]c3n1)CC2 (configuration not stated) + CCn1c(-c2cc(N3CCN(C)CC3)cnc2C(C)OC)c2c3cc(ccc31)-c1csc(n1)CC(NC(=O)C1CC1C)C(=O)N1CCCC(N1)C(=O)OCC(C)(C)C2
IC50 (second compound 0.000949 µM): < 31.6 nM | IC50 (second compound 0.003 µM): < 31.6 nM | IC50 (second compound 0.00949 µM): < 31.6 nM | IC50 (second compound 0.03 µM): < 31.6 nM | IC50 (second compound 0.0949 µM): < 31.6 nM | IC50 (second compound 0.3 µM): < 31.6 nM | viability, T/C [1]: 30.3% | viability, T/C [2]: 19.3% | viability, T/C [3]: 11% | viability, T/C [4]: 8.58% | viability, T/C [5]: 5.25% | viability, T/C [6]: 1.78% | viability, T/C [7]: 20.3% | viability, T/C [8]: 11.8% | viability, T/C [9]: 9.37% | viability, T/C [10]: 8.15% | viability, T/C [11]: 3.56% | viability, T/C [12]: 1.82% | viability, T/C [13]: 14.5% | viability, T/C [14]: 7.88% | viability, T/C [15]: 5.28% | viability, T/C [16]: 4.34% | viability, T/C [17]: 2.68% | viability, T/C [18]: 2.25% | viability, T/C [19]: 8.5% | viability, T/C [20]: 6.42% | viability, T/C [21]: 4.71% | viability, T/C [22]: 2.66% | viability, T/C [23]: 2.29% | viability, T/C [24]: 2.1% | viability, T/C [25]: 6.81% | viability, T/C [26]: 4.57% | viability, T/C [27]: 4.01% | viability, T/C [28]: 2.85% | viability, T/C [29]: 3.37% | viability, T/C [30]: 1.78% | viability, T/C [31]: 3.46% | viability, T/C [32]: 4.3% | viability, T/C [33]: 3.62% | viability, T/C [34]: 2.74% | viability, T/C [35]: 1.58% | viability, T/C [36]: 1.7%

CCc1c2c(nc3ccc(O)cc13)-c1cc3c(c(=O)n1C2)COC(=O)[C@]3(O)CC
viability, T/C (compound 0.003 µM): 98.3% [middle of 4 runs] | viability, T/C (compound 0.03 µM): 65.8% [middle of 4 runs] | viability, T/C (compound 0.3 µM): 31.6% [middle of 4 runs]

C[C@@H](NC(=O)c1ncnc(N)c1Cl)c1ncc(C(=O)Nc2cc(C(F)(F)F)c(Cl)cn2)s1 + CCn1c(-c2cc(N3CCN(C)CC3)cnc2C(C)OC)c2c3cc(ccc31)-c1csc(n1)CC(NC(=O)C1CC1C)C(=O)N1CCCC(N1)C(=O)OCC(C)(C)C2
IC50 (second compound 0.000949 µM): > 10000 nM | IC50 (second compound 0.003 µM): > 10000 nM | IC50 (second compound 0.00949 µM): < 31.6 nM | IC50 (second compound 0.03 µM): < 31.6 nM | IC50 (second compound 0.0949 µM): < 31.6 nM | IC50 (second compound 0.3 µM): < 31.6 nM | viability, T/C [1]: 74.7% | viability, T/C [2]: 78.6% | viability, T/C [3]: 79.2% | viability, T/C [4]: 76.4% | viability, T/C [5]: 83.9% | viability, T/C [6]: 75.6% | viability, T/C [7]: 54.3% | viability, T/C [8]: 46.9% | viability, T/C [9]: 52.8% | viability, T/C [10]: 65.1% | viability, T/C [11]: 55.5% | viability, T/C [12]: 68.9% | viability, T/C [13]: 31.6% | viability, T/C [14]: 28.8% | viability, T/C [15]: 28.1% | viability, T/C [16]: 30.3% | viability, T/C [17]: 33.8% | viability, T/C [18]: 39.8% | viability, T/C [19]: 17.5% | viability, T/C [20]: 17.6% | viability, T/C [21]: 16.1% | viability, T/C [22]: 17% | viability, T/C [23]: 21.2% | viability, T/C [24]: 21.5% | viability, T/C [25]: 15.8% | viability, T/C [26]: 9.99% | viability, T/C [27]: 11.8% | viability, T/C [28]: 13.7% | viability, T/C [29]: 15.9% | viability, T/C [30]: 13.7% | viability, T/C [31]: 11.7% | viability, T/C [32]: 11.5% | viability, T/C [33]: 13.1% | viability, T/C [34]: 9.77% | viability, T/C [35]: 14.9% | viability, T/C [36]: 15.3%
